From US6329338A, “Derivatives of cyclodepsipeptide PF1022 substance” (Meiji Seika Kaisha, Ltd., priority 1995, dated 2001)

Columns and labels:
Haemonchus contortus = test: in vivo test on anthelmintic activity against sheep parasites (faecal egg count before and after dosing); settings: sheep infested with Haemonchus contortus; oral, gelatine capsules
Source text: "in vivo" Test on Anthelmintic Activity Against Sheep Parasites
To sheep on which a nematode, Haemonchus contortus has been infested, a test compounds formulated in the form of gelatine capsules was orally administered at its dose (mg) which was accurately calculated on the basis of the body weight (kg) of the tested sheep.
The number of eggs, which were excreted along with feces from the sheep under test, was counted quantitatively both before and after the administration of the test compound. Thus, the extent of the anthelmintic effects of the test compound was evaluated. The test results are shown in Table 1 below, wherein the tested compounds are indicated by the code number of each substance tested. In Table 1, there is shown the dosage of test compound at which involvement of the excretion of eggs could not be observed at all, that is to say, the dosage of each novel cyclodespsipeptide derivative of PF1022 substance according to this invention at which the parasite could be expelled or exterminated completely.

[1] = system: Nippostrongylus brasiliensis; test: in vivo test on anthelmintic activity against Nippostrongylus brasiliensis in rats (adult parasites remaining in small intestine); settings: male Wister rats, oral, ten days after administration, vs infected untreated control
Method: "in vivo" Test on Anthelmintic Activity Against Nipostrongylus brasiliensis Male rats of Wister strain, which have been artificially infected with Nippostrongylus brasiliensis, were used as test animals. The administration dose (mg) of each test compound was accurately calculated on the basis of the body weight (kg) of each rat. Each compound tested was used in the form of a solution in dimethlsulfoxide or methanol. The solution was diluted with a Ringer solution and forcedly administered orally to the test rats. Ten days after the administration, the rats were dissected and the number of adult parasites remaining in the small intestines of the rats was counted. Efficacy was calculated in comparison with the number of adult parasites in the control group of test rats (infected, but untreated) and is shown in Table 2 below.

| Molecule | Adminstration dose (mg/kg): dosage at which excretion of eggs could not be observed at all (parasite expelled completely) (Haemonchus contortus) [mg/kg] | also measured |
| --- | --- | --- |
| CC(C)C[C@H]1C(=O)O[C@H](Cc2ccccc2)C(=O)N(C)[C@@H](CC(C)C)C(=O)O[C@H](C)C(=O)N(C)[C@@H](CC(C)C)C(=O)O[C@H](Cc2ccccc2)C(=O)N(C)[C@@H](CC(C)C)C(=O)O[C@H](C)C(=O)N1C [PF1022 substance, Cyclo(L-MeLeu-D-Lac-L-MeLeu-D-PhLac-L-MeLeu-D-Lac-L-MeLeu-D-PhLac)] | 0.25 | Efficacy (%) ([1]; dosage 10 mg/kg): 80.2% |
| CCN(CC)CCOc1ccc(C[C@H]2OC(=O)[C@H](CC(C)C)N(C)C(=O)[C@@H](C)OC(=O)[C@H](CC(C)C)N(C)C(=O)[C@@H](Cc3ccccc3)OC(=O)[C@H](CC(C)C)N(C)C(=O)[C@@H](C)OC(=O)[C@H](CC(C)C)N(C)C2=O)cc1 [PF1022-236, Cyclo[MeLeu-Lac-MeLeu-((C2 H5)2 NCH2 CH2 O)PhLac-MeLeu-Lac-MeLeu-PhLac]] | 0.01 |  |
| COCCN(CCOC)CCOc1ccc(CC2OC(=O)C(CC(C)C)N(C)C(=O)C(C)OC(=O)C(CC(C)C)N(C)C(=O)C(Cc3ccccc3)OC(=O)C(CC(C)C)N(C)C(=O)C(C)OC(=O)C(CC(C)C)N(C)C2=O)cc1 (stereo not drawn) [PF1022-238, Cyclo[MeLeu-((CH3 OCH2 CH2)2 NCH2 CH2 O)PhLac-MeLeu-Lac-MeLeu-PhLac-MeLeu-Lac]] | 0.01 |  |
| Cyclo[MeLeu-(Mor)PhLac-MeLeu-Lac-MeLeu-PhLac-MeLeu-Lac] [PF1022-233] | 0.05 | Efficacy (%) ([1]; dosage 1 mg/kg): 99.1%; Efficacy (%) ([1]; dosage 2 mg/kg): 100%; Efficacy (%) ([1]; dosage 5 mg/kg): 100% |
| Cyclo[MeLeu-(Mor)PhLac-MeLeu-Lac] [reference compound] | 0.05 |  |
| Cyclo[MeLeu-(MorCH2 CH2 O)PhLac-MeLeu-Lac-MeLeu-PhLac-MeLeu-Lac] [PF1022-239] | 0.025 |  |
| Cyclo[MeLeu-(o-Mor)PhLac-MeLeu-Lac-MeLeu-(p-Mor)PhLac-MeLeu-Lac] [PF1022-280] |  | Efficacy (%) ([1]; dosage 1 mg/kg): 95.8%; Efficacy (%) ([1]; dosage 2 mg/kg): 99.3%; Efficacy (%) ([1]; dosage 5 mg/kg): 100% |
| Cyclo[MeLeu-Lac-MeLeu-((C2 H5)2 NHCH2 CH2 O)PhLac]2 [PF1022-263] | 0.01 |  |
| Cyclo[MeLeu-Lac-MeLeu-((C6 H5)2 CHOCO)Lac-MeLeu-Lac-MeLeu-PhLac] [PF1022-046] | 0.1 |  |
| Cyclo[MeLeu-Lac-MeLeu-((C6 H5)2 CHOCO)Lac]2 [PF1022-045] | 0.1 |  |
| Cyclo[MeLeu-Lac-MeLeu-((CH3)2 NCH2 CH2 O)PhLac-MeLeu-Lac-MeLeu-PhLac] [PF1022-235] | 0.1 |  |
| Cyclo[MeLeu-Lac-MeLeu-(Bu2 NCH2 CH2 O)PhLac-MeLeu-Lac-MeLeu-PhLac] [PF1022-271] |  | Efficacy (%) ([1]; dosage 5 mg/kg): 100% |
| Cyclo[MeLeu-Lac-MeLeu-(Pr2 NCH2 CH2 O)PhLac-MeLeu-Lac-MeLeu-PhLac] [PF1022-270] |  | Efficacy (%) ([1]; dosage 2 mg/kg): 94.2%; Efficacy (%) ([1]; dosage 5 mg/kg): 99.7% |
| Cyclo[MeLeu-Lac-MeLeu-(furfuryloxy)PhLac-MeLeu-Lac-MeLeu-PhLac] [PF1022-312] | 0.05 |  |
| Cyclo[MeLeu-Lac-MeLeu-(imidazolyl-4-methoxy)PhLac-MeLeu-Lac-MeLeu-PhLac] [PF1022-304] | 0.05 |  |
| Cyclo[MeLeu-Lac-MeLeu-(pipCH2 CH2 O)PhLac-MeLeu-Lac-MeLeu-PhLac] [PF1022-285] | 0.1 |  |
| Cyclo[MeLeu-Lac-MeLeu-(t-BuO)PhLac]2 [PF1022-222] | 0.05 |  |
| Cyclo[MeLeu-Lac-MeLeu-PhLac-MeLeu-Lac-MeLeu-(NH2 CO)PhLac] [PF1022-242] | 0.01 |  |
